The record followed here is PubChem BioAssay AID1033 (Sanford-Burnham Center for Chemical Genomics, 2008).

Calls of active or inactive are those of the source. No rule for the calls is given here.

The target of the test is Chaperone protein DnaK (Escherichia coli (strain K12)) (UniProt P0A6Y8). Put plainly: binders of DnaK substrate-binding domain, biophysical, NMR, chaperone (AID 1033). The settings on record: Purified DnaK SBD, NMR ligand binding.
Chain of Chaperone protein DnaK (Escherichia coli (strain K12)) (P0A6Y8 whole entry, looked up, the tested form may be a part): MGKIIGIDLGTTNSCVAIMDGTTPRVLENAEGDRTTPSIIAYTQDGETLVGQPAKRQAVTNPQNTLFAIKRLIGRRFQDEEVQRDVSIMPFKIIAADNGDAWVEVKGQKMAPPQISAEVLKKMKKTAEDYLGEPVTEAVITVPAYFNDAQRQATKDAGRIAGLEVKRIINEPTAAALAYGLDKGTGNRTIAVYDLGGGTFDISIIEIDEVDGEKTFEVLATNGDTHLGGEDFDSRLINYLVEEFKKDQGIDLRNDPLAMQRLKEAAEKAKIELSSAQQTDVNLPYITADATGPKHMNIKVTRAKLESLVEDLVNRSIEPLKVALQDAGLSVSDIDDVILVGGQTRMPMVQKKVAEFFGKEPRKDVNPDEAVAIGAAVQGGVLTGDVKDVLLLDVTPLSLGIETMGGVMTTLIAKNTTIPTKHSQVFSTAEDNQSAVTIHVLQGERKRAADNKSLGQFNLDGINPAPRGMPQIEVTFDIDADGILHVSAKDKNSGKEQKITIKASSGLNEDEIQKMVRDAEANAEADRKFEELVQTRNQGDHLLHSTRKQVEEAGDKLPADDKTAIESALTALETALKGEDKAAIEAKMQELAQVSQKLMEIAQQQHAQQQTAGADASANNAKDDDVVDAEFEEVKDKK
For orientation: Kd means the equilibrium constant for the complex coming apart. For the molecule `Cc1c(C(=O)O)cnn1-c1ccccc1`, the Kd was > 4 mM (inactive).

Consider `Cc1c(C(=O)OC(C)C)[nH]c2c1C(=O)CCC2`, for which the Kd is > 4 mM (inactive).

On to `O=C(O)c1ccc(CN2CCOCC2)cc1`, for which the Kd was > 4 mM (inactive).

Regarding `NC1=NC(=O)/C(=C/c2cccc([N+](=O)[O-])c2)S1`, the Kd is > 4 mM (inactive).

On to `NC(=O)CSCc1ccc(Br)cc1`, for which the Kd is > 4 mM (inactive).

As to `Nc1[nH]c(=S)[nH]c(=O)c1-c1ccccc1`, the Kd is > 4 mM (inactive).

As to `CC(=O)Nc1sc(C)c(C)c1C(N)=O`, the Kd was > 4 mM (inactive).

As for `CC(=O)O[C@@H]1CC2C(C)(C)C(=O)C=C[C@]2(C)C2CC[C@@]3(C)[C@H](c4ccoc4)OC(=O)[C@H]4O[C@]43[C@@]21C` (stereo not given in full), the Kd is > 4 mM (inactive).

Take `CC1(C)C(=O)C=C[C@@]2(C)C1=C(O)C(=O)[C@]1(C)C2CC[C@@]2(C)[C@H](c3ccoc3)C[C@H]3O[C@]321` (stereo not given in full): the Kd was > 4 mM (inactive).

Consider `COc1cc2c(cc1OC)-c1cc3ccc(OC)c(OC)c3c[n+]1CC2`, for which the Kd is > 4 mM (inactive).

In the case of `Nc1ccc(-n2cccc2)cc1`, the Kd was > 4 mM (inactive).

For the molecule `CC12CN([N+](=O)[O-])C3(C(N)=O)CC1CCC23C` (stereo not given), the Kd is > 4 mM (inactive).

In the case of `Cc1cc(N)n(-c2ccccc2)n1`, the Kd is > 4 mM (inactive).

As for `CCOC(=O)c1c(C)cc(OC)cc1O`, the Kd is > 4 mM (inactive).

In the case of `CCc1cc2c(SCC(=O)O)ncnc2s1`, the Kd was > 4 mM (inactive).

`Cc1noc(C)c1CSc1nc2ccccc2[nH]1`: the Kd was > 4 mM (inactive).

With `O/N=C1/CCCc2nonc21`, the Kd is > 4 mM (inactive).

For the molecule `O=CN1CCN(C(=O)c2ccccc2F)CC1`, the Kd is > 4 mM (inactive).

In the case of `CC(C)=CCc1c(O)cc2oc(C)cc(=O)c2c1O`, the Kd was > 4 mM (inactive).

Take `O=C(Cc1cccs1)Nc1nncs1`: the Kd was > 4 mM (inactive).

For the molecule `Cc1ccc(CN2CCNC(=O)C2CC(=O)O)o1` (stereo not given), the Kd is > 4 mM (inactive).

`C=C[C@@]1(C)CC(=O)[C@@]2(O)[C@](C)(O1)[C@@H](OC(C)=O)[C@@H](O)C1C(C)(C)CC[C@H](O)[C@@]12C` (stereo not given in full): the Kd is > 4 mM (inactive).

Turning to `OCc1cc(-c2cccs2)on1`, the Kd is > 4 mM (inactive).

For `NC(=O)c1cc(N)ccc1N1CCCCC1`, the Kd is > 4 mM (inactive).

Turning to `Cc1[nH]c2ccccc2c1CN(C)C`, the Kd was > 4 mM (inactive).

With `Cc1cc(C)nc(Nc2n[nH]c(Cc3ccccc3)n2)n1`, the Kd was > 4 mM (inactive).

Take `CCOC(=O)N1CCN(c2ncnc3c2cnn3C)CC1`: the Kd is > 4 mM (inactive).

Turning to `CC(C)CCn1cnc2c1c(=O)n(C)c(=O)n2C`, the Kd is > 4 mM (inactive).

Take `O=c1[nH]c(O)c(C=NCc2cccs2)c(=O)[nH]1`: the Kd was > 4 mM (inactive).

In the case of `Cc1cc(C)c(-c2cc(C(F)(F)F)no2)c(=O)[nH]1`, the Kd is > 4 mM (inactive).

For `COc1ccc2c(c1)OC[C@@H](Cc1ccc(OC)c(OC)c1)[C@H]2O`, the Kd is > 4 mM (inactive).

On to `NC(=O)COc1cccc2cccnc12`, for which the Kd is > 4 mM (inactive).

Turning to `COc1ccc(-c2coc3cc(O)ccc3c2=O)cc1`, the Kd was > 4 mM (inactive).

Turning to `CC(=O)Oc1ccc(-c2cc(=O)c3c(OC(C)=O)cc(OC(C)=O)cc3o2)cc1`, the Kd was > 4 mM (inactive).

Consider `CC(C)=CCOc1c2occc2cc2ccc(=O)oc12`, for which the Kd was > 4 mM (inactive).

Regarding `O=C1C=C(Nc2ccc(O)cc2)c2ccccc2C1=O`, the Kd was > 4 mM (inactive).

For `NC(=O)NCCCC(N)C(=O)O` (stereo not given), the Kd is > 4 mM (inactive).

`CCOc1ccc(C(=O)c2ccncc2)cc1`: the Kd is > 4 mM (inactive).

Consider `Cn1c(CNc2ccccc2)cc(=O)n(C)c1=O`, for which the Kd is > 4 mM (inactive).

On to `Cn1cc(Cl)c(C(=O)Nc2ccc(F)cc2F)n1`, for which the Kd is > 4 mM (inactive).
